From patent publication US5696155A, “Dibenz[b,e]oxepin derivatives and pharmaceutical agents which contain them” (Boehringer Mannheim BmbH, priority 1993, dated 1997) come the findings set out here.

This assay deals with T1, human recombinant type II PLA2 (=synovial PLA2) (Homo sapiens, UniProt P14555).
T1 sequence (P14555 21-144): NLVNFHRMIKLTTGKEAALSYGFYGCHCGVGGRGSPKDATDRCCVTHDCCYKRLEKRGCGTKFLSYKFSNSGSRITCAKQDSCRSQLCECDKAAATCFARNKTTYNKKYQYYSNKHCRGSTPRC
In words: Inhibition of PLA2 activity (sPLA2 enzyme activity, in vitro). The assay is classed as biochemical. Conditions: means of 3 experiments (duplicate determinations); for inhibition at 0.1 µg/mL: concentration 0.1 μg/ml; for inhibition at 1 µg/mL: concentration 1 μg/ml; for inhibition at 10 µg/mL: concentration 10 μg/ml. From the text: Inhibition of PLA2 activity
The human recombinant type II PLA2 (=synovial PLA2) as a typical representative of a PLA2 was used for the test.
This documents the superiority of the new sPLA2 inhibitors compared to a cyclooxygenase inhibitor.

`CCOC(=O)c1cc(=O)c2c3c(ccc2o1)C(=O)c1ccc(O)cc1CO3` [Ex.2a), 7,12-dihydro-10-hydroxy-1H-4,13-dioxabenzo[4,5]cyclohepta[1,2-a]-naphthalene-1,7-dione-3-carboxylic acid-ethyl ester]: the inhibition at 0.1 µg/mL is 28%, the inhibition at 1 µg/mL was 52% and the inhibition at 10 µg/mL is 61%.

Regarding `COc1ccc2c(c1)c(CC(=O)O)c(C)n2C(=O)c1ccc(Cl)cc1` [Indomethacin, reference compound], the inhibition at 1 µg/mL worked out at 0%.

Turning to `CCOC(=O)c1cc(=O)c2cc3c(cc2o1)OCc1cc(O)ccc1C3=O` [Ex.2c), 7,13-dihydro-2-hydroxy-5H-10,12-dioxabenzo[4,5]cyclohepta[1,2-b]-naphthalen-5,7-dione-9-carboxylic acid ethyl ester], the inhibition at 0.1 µg/mL was 12%, the inhibition at 1 µg/mL was 73% and the inhibition at 10 µg/mL is 78%.

Take `CCCCCCCCOc1ccc2c(c1)COc1c(cc3c(=O)cc(C(=O)OCC)oc3c1CCC)C2=O` [Ex.4a), 7,13-dihydro-2-octyloxy-11-propyl-5H-10,12-dioxabenzo-[4,5]cyclo-hepta[1,2-b]naphthalen-5,7-dione-9-carboxylic acid ethyl ester]: the inhibition at 0.1 µg/mL turned out to be 16%, the inhibition at 1 µg/mL is 17% and the inhibition at 10 µg/mL was 49%.

What is called inhibition is how much of the control response was suppressed.
